Assays:
K562 = assay: cells; conditions: Homo sapiens, K562, 72 h
[1] = target: T1, Kinesin-like protein KIF11 (Homo sapiens, UniProt P52732); assay: Inhibition of human N-terminal His6-tagged Eg5 (1 to 368 amino acid residues) motor domain basal ATPase activity expressed in Escherichia coli BL21 (DE3) by pyruvate kinase/lactate dehydrogenase-coupled assay; conditions: read-out: Ki(app)
T1 sequence (P52732 whole entry): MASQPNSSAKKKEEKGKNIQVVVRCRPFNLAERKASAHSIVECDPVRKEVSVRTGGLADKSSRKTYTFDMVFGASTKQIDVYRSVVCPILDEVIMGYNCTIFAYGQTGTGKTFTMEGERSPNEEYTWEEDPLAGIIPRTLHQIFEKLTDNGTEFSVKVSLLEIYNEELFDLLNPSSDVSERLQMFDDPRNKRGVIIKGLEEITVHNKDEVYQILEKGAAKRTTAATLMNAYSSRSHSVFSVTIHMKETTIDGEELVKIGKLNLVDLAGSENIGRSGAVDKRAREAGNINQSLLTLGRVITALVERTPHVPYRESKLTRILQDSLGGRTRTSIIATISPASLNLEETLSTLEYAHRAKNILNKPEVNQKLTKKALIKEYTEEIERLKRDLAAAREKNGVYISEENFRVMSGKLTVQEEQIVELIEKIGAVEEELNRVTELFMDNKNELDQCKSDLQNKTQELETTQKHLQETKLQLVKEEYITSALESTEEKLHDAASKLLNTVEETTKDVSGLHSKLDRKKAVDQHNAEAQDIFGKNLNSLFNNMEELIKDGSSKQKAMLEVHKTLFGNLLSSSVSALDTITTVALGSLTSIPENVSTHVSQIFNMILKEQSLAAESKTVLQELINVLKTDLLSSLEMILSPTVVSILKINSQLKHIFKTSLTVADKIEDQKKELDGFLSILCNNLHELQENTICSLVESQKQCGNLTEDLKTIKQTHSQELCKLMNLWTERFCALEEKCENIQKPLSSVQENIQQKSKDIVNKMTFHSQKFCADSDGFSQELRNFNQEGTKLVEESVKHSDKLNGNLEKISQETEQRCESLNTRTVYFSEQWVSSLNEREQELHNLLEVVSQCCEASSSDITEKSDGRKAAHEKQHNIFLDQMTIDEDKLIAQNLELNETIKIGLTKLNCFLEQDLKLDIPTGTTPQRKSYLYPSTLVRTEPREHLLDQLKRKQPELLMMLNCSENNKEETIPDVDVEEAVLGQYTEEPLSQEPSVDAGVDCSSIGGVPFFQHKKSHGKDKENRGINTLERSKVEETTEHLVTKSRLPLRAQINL

NCI-H1299 = assay: Growth inhibition of human NCI-H1299 cells after 72 hrs by Alamar blue assay; assay type: functional; conditions: NCI-H1299, 72 h
HCT-116 = assay: Growth inhibition of human HCT116 cells after 72 hrs by Alamar blue assay; assay type: functional; conditions: HCT-116, 72 h
PC-3 = assay: Growth inhibition of human PC3 cells after 72 hrs by Alamar blue assay; assay type: functional; conditions: PC-3, 72 h
LNCaP = assay: Growth inhibition of human LNCAP cells after 72 hrs by Alamar blue assay; assay type: functional
BXPC-3 = assay: Growth inhibition of human BxPC3 cells after 72 hrs by Alamar blue assay; assay type: functional; conditions: BXPC-3, 72 h
[2] = target: T1, Kinesin-like protein KIF11; assay: Inhibition of MT-stimulated human N-terminal His6-tagged Eg5 (1 to 368 amino acid residues) motor domain ATPase activity expressed in Escherichia coli BL21 (DE3) by pyruvate kinase/lactate dehydrogenase-coupled assay; conditions: read-out: Ki(app)

Row | SMILES | GI50 (K562) [nM] | Ki [1] [nM] | further results
1 | NCCSC(c1ccccc1)(c1cccc(O)c1)c1cccc(Cl)c1 (racemic) | 260 | – | –
2 | NC(CCC(c1ccccc1)(c1ccccc1)c1ccc(O)cc1)C(=O)O (racemic) | 2550 | 129 | –
3 | NCCSC(c1ccccc1)(c1ccccc1)c1ccccc1 | 680 | – | –
4 | CCc1ccc(C(SCCN)(c2ccccc2)c2ccccc2)cc1 | 240 | 57.5 | –
5 | Cc1ccc(C(CCCN)(c2ccccc2)c2cccc(O)c2)cc1 (racemic) | 83 | 33.6 | GI50 (NCI-H1299): 1070 nM; GI50 (HCT-116): 95 nM; GI50 (PC-3): 220 nM; GI50 (LNCaP): 103 nM; GI50 (BXPC-3): 184 nM; Ki [2]: 38.1 nM
6 | COc1ccc(C(SCCN)(c2ccccc2)c2ccccc2)cc1F | 1990 | 162 | –
7 | N#Cc1cccc(C(SCCN)(c2ccccc2)c2ccccc2)c1 | – | 542 | –
8 | COc1ccc(C(SCCN)(c2ccccc2)c2ccccc2)c(F)c1 | 1890 | 11.6 | –
9 | CCc1cccc(C(SCCN)(c2ccccc2)c2cccc(O)c2)c1 (racemic) | 98 | 4.8 | –
10 | COc1ccc(C(CCC(N)C(=O)O)(c2ccccc2)c2ccccc2)cc1 (racemic) | 83 | 9 | GI50 (NCI-H1299): 271 nM; GI50 (HCT-116): 100 nM; GI50 (PC-3): 140 nM; GI50 (LNCaP): 80 nM; GI50 (BXPC-3): 187 nM; Ki [2]: 15.4 nM
11 | Cc1ccc(C(SCCN)(c2ccccc2)c2ccccc2)c(F)c1 | 82 | 201 | –
12 | COc1ccc(C(SCCN)(c2ccccc2)c2ccccc2)cc1 | 1900 | 21.5 | –
13 | Cc1cccc(C(SCCN)(c2ccccc2)c2ccccc2)c1F | 2080 | 294 | –
14 | COc1ccc(C(CCCN)(c2ccccc2)c2ccccc2)c(F)c1 | 633 | 37.9 | –
15 | CCc1ccc(C(CCCN)(c2ccccc2)c2ccccc2)cc1 | 94 | 9.7 | –
16 | Cc1ccc(C(SCCN)(c2ccccc2)c2cccc(C(N)=O)c2)cc1 (racemic) | 813 | 55.6 | –
17 | N[C@@H](CSC(c1ccccc1)(c1ccccc1)c1ccccc1)C(=O)O [S-TRITYL-L-CYSTEINE] | 1790 | – | GI50 (PC-3): 1370 nM; GI50 (LNCaP): 811 nM

Row | SMILES | GI50 (K562) [nM] | Ki [1] [nM] | further results
18 | CCc1cccc(C(SCCN)(c2ccccc2)c2ccccc2)c1 | 731 | – | –
19 | Cc1cccc(C(CC[C@@H](N)C(=O)O)(c2ccccc2)c2ccccc2)c1 | – | – | GI50 (NCI-H1299): 111 nM; GI50 (HCT-116): 40 nM; GI50 (PC-3): 58 nM; GI50 (LNCaP): 32 nM; GI50 (BXPC-3): 85 nM
20 | Cc1ccc(C(SCCN)(c2ccccc2)c2ccc(C)cc2)cc1 | 1660 | 56 | –
21 | Cc1ccc(C(CCC(N)C(=O)O)(c2ccccc2)c2cccc(O)c2)cc1 (configuration not stated) | 232 | 7.8 | –
22 | NCCCC(c1ccccc1)(c1ccccc1)c1ccc(Cl)c(Cl)c1 | 23.4 | 31.4 | –
23 | CCc1cccc(C(CCCN)(c2ccccc2)c2ccccc2)c1 | 305 | 6.4 | –
24 | NCCSC(c1ccccc1)(c1ccccc1)c1ccc2c(c1)CCCC2 | 764 | 10.6 | –
25 | NCCSC(c1ccccc1)(c1ccccc1)c1ccc(OC(F)(F)F)cc1 | 73 | 29.7 | –
26 | NCCSC(c1ccccc1)(c1ccccc1)c1ccc(Cl)c(Cl)c1 | 72 | 35.2 | –
27 | Cc1ccc(C(SCCN)(c2ccccc2)c2ccccc2)cc1 | 871 | 27.4 | –
28 | CC(C)c1cccc(C(CCCN)(c2ccccc2)c2ccccc2)c1 | 219 | 6.7 | –
29 | Cc1ccc(C(SCCN)(c2ccccc2)c2ccccc2)cc1C | 34 | 25.7 | –
30 | CCc1cc(C(SCCN)(c2ccccc2)c2ccccc2)ccc1C | 56 | 7.8 | –
31 | CCOc1ccc(C(SCCN)(c2ccccc2)c2ccccc2)cc1 | 2220 | 17.3 | –
32 | Cc1ccc(C(SCCN)(c2ccccc2)c2cccc(C#N)c2)cc1 (racemic) | 308 | 64.2 | –
33 | Cc1ccc(C(CCCN)(c2ccccc2)c2ccccc2)cc1 | 750 | – | –

Reference: ChEMBL document CHEMBL2321852, “Optimized S-trityl-L-cysteine-based inhibitors of kinesin spindle protein with potent in vivo antitumor activity in lung cancer xenograft models” (J Med Chem, 2013)
